Measured values: ChEMBL document CHEMBL4017459, “Synthesis and anti-inflammatory evaluation of N-sulfonyl anthranilic acids via Ir(III)-catalyzed C-H amidation of benzoic acids” (2017)

Key:
Format in all cases: functional
RAW264.7 [1] = test: Anti-inflammatory activity in mouse RAW264.7 cells assessed as inhibition of LPS-induced Il-1beta secretion measured after 24 hrs by Western blot analysis relatively to control
RAW264.7 [2] = test: Anti-inflammatory activity in mouse RAW264.7 cells assessed as inhibition of LPS-induced COX-2 expression measured after 24 hrs by Western blot analysis relatively to control
RAW264.7 [3] = test: Potency index, ratio of ibuprofen to test compound for anti-inflammatory activity in mouse RAW264.7 cells assessed as inhibition of LPS-induced IL-beta secretion

SMILES	inhibition (INH) (RAW264.7 [1])	inhibition (INH) (RAW264.7 [2])	Ratio (RAW264.7 [3])
Cc1ccc(S(=O)(=O)Nc2cc(C)cc(C)c2C(=O)O)cc1	45%	52%	–
Cc1cccc(NS(=O)(=O)c2ccc3ccccc3c2)c1C(=O)O	6%	33%	–
Cc1ccc(S(=O)(=O)Nc2cccc(Cl)c2C(=O)O)cc1	45%	-4%	–
Cc1ccc(S(=O)(=O)Nc2ccc(C)cc2C(=O)O)cc1	20%	49%	–
Cc1cccc(NS(=O)(=O)c2ccccc2F)c1C(=O)O	35%	42%	–
Cc1cccc(NS(=O)(=O)c2ccc(Br)cc2)c1C(=O)O	98%	36%	–
Cc1ccc(S(=O)(=O)Nc2cccc(NS(=O)(=O)c3ccc(C)cc3)c2C(=O)O)cc1	-21%	22%	–
Cc1ccc(S(=O)(=O)Nc2cccc([N+](=O)[O-])c2C(=O)O)cc1	81%	-1%	1.5 - 2.5
Cc1ccc(S(=O)(=O)Nc2cccc(F)c2C(=O)O)cc1	82%	3%	1.5 - 2.5
Cc1cccc(NS(=O)(=O)c2ccccc2)c1C(=O)O	52%	22%	–
Cc1ccc(S(=O)(=O)Nc2ccc3ccccc3c2C(=O)O)cc1	9%	34%	–
COc1ccc(S(=O)(=O)Nc2cccc(C)c2C(=O)O)cc1	88%	51%	–
Cc1ccc(S(=O)(=O)Nc2cc(C)cc(NS(=O)(=O)c3ccc(C)cc3)c2C(=O)O)cc1	66%	-8%	1.5 - 2.5
Cc1ccc(S(=O)(=O)Nc2cccc(Br)c2C(=O)O)cc1	42%	18%	–
Cc1cccc(NS(=O)(=O)c2ccc([N+](=O)[O-])cc2)c1C(=O)O	66%	67%	1.5 - 2.5
Cc1ccc(S(=O)(=O)Nc2cccc(C(F)(F)F)c2C(=O)O)cc1	21%	69%	–
Cc1cccc(NS(=O)(=O)c2ccc(C(F)(F)F)cc2)c1C(=O)O	54%	55%	–
COc1cccc(NS(=O)(=O)c2ccc(C)cc2)c1C(=O)O	66%	51%	1.5 - 2.5
CC(C)Cc1ccc(C(C)C(=O)O)cc1 (configuration not stated) [IBUPROFEN]	35%	54%	–
COc1ccc(NS(=O)(=O)c2ccc(C)cc2)c(C(=O)O)c1NS(=O)(=O)c1ccc(C)cc1	-21%	34%	–
Cc1ccc(S(=O)(=O)Nc2cccc(C)c2C(=O)O)cc1	37%	72%	–
